One block for each compound: values may come before it. Active and inactive are the calls of the source. The calls are words filed in the database; no cut-off is given here.
How the values were obtained:
[1] = Metabolic stability in mouse liver microsomes assessed as parent compound remaining at 1 uM after 10 mins in presence of NADPH; type: ADME, microsome; settings: read-out: Stability
[2] = Metabolic stability in human liver microsomes assessed as parent compound remaining at 1 uM after 10 mins in presence of NADPH; type: ADME, microsome; settings: read-out: Stability
[3] = biological target: Cytochrome P450 2C9 (Homo sapiens, UniProt P11712); experiment: Inhibition of CYP2C9 in human liver microsomes using tolbutamide as substrate after 10 to 30 mins by LC/MS analysis; type: ADME
Chain of Cytochrome P450 2C9 (P11712 whole entry): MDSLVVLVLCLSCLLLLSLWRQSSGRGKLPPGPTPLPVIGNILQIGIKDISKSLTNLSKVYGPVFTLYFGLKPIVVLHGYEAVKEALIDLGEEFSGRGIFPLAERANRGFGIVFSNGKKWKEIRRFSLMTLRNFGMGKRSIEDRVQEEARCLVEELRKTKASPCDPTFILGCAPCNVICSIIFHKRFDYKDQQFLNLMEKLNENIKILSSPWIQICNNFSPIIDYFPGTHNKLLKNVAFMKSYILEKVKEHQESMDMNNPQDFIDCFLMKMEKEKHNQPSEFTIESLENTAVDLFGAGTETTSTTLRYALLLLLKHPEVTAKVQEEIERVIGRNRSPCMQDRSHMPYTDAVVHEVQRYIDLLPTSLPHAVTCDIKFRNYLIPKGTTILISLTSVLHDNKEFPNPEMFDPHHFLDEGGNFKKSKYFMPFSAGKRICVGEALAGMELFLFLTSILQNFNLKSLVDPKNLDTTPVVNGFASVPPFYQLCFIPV

[4] = biological target: T1, Cytochrome P450 1A2 (Homo sapiens, UniProt P05177); experiment: Inhibition of CYP1A2 in human liver microsomes using phenacetin as substrate after 10 to 30 mins by LC/MS analysis; type: ADME
T1 sequence (P05177 whole entry): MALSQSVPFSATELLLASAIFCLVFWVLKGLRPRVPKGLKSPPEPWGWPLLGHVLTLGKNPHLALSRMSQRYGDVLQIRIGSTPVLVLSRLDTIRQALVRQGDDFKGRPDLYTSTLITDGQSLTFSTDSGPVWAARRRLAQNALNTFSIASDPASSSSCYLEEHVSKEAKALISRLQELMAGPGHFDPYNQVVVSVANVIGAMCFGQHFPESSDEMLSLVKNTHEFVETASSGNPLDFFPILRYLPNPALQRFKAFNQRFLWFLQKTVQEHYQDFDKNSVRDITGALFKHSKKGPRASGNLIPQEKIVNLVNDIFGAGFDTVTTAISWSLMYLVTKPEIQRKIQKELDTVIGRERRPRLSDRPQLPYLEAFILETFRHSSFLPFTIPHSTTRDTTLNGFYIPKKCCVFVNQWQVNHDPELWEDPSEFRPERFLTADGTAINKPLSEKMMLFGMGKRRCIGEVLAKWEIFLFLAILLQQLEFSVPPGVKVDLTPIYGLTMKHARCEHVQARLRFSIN

[5] = biological target: Cytochrome P450 3A4 (Homo sapiens, UniProt P08684); experiment: Inhibition of CYP3A4 in human liver microsomes using midazolam/testosterone as substrate after 10 to 30 mins by LC/MS analysis; type: ADME
Chain of Cytochrome P450 3A4 (P08684 whole entry): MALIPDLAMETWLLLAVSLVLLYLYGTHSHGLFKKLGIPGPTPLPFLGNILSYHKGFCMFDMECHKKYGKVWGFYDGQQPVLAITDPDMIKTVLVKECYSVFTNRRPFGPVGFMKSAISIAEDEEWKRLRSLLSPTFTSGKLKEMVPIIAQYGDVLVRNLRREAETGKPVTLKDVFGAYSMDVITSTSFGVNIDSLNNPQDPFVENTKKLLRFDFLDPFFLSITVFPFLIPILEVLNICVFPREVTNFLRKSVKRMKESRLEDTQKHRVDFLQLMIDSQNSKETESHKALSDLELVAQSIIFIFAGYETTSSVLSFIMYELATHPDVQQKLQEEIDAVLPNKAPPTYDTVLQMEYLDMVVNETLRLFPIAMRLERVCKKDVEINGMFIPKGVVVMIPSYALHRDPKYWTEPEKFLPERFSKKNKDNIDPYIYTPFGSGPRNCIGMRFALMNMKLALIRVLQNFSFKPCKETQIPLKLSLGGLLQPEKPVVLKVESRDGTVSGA

[6] = Metabolic stability in rat liver microsomes assessed as parent compound remaining at 1 uM after 10 mins in presence of NADPH; type: ADME, microsome; settings: read-out: Stability
[7] = biological target: Cytochrome P450 2C19 (Homo sapiens, UniProt P33261); experiment: Inhibition of CYP2C19 in human liver microsomes using (S)-mephenytoin as substrate after 10 to 30 mins by LC/MS analysis; type: ADME
Chain of Cytochrome P450 2C19 (P33261 whole entry): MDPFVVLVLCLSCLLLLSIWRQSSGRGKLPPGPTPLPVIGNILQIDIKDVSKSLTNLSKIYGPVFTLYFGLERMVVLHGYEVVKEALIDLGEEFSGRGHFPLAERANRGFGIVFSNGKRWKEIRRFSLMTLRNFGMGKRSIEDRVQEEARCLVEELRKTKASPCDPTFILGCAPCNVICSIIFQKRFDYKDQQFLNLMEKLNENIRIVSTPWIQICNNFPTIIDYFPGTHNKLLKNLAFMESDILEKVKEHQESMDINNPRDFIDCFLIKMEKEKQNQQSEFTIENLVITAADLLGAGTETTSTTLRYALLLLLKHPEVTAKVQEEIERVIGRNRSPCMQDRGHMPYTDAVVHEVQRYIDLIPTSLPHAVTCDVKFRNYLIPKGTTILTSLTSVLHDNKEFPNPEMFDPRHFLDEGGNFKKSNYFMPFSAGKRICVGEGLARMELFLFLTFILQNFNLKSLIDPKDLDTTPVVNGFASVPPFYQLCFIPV

[8] = biological target: Cytochrome P450 2D6 (Homo sapiens, UniProt P10635); experiment: Inhibition of CYP2D6 in human liver microsomes using dextromethorphan as substrate after 10 to 30 mins by LC/MS analysis; type: ADME
Chain of Cytochrome P450 2D6 (P10635 whole entry): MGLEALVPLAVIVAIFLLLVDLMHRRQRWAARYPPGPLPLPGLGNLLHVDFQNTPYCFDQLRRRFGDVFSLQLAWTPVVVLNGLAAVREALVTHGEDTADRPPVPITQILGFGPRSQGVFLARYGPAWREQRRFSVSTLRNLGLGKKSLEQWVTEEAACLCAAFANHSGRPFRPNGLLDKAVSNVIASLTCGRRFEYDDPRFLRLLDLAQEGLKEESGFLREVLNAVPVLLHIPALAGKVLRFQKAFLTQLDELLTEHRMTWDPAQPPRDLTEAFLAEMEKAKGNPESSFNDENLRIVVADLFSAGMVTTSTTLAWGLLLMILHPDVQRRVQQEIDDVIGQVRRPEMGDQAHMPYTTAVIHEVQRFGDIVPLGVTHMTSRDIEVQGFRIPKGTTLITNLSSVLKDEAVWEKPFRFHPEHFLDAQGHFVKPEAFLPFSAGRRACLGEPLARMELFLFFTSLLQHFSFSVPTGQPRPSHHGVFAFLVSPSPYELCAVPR

[9] = biological target: Cannabinoid receptor 1 (Homo sapiens, UniProt P21554); experiment: Inverse agonist activity at human CB1 receptor expressed in HEK293 cells assessed as inhibition of forskolin-induced cAMP accumulation after 30 mins by HTRF assay; type: functional, cell-based
Chain of Cannabinoid receptor 1 (P21554 whole entry): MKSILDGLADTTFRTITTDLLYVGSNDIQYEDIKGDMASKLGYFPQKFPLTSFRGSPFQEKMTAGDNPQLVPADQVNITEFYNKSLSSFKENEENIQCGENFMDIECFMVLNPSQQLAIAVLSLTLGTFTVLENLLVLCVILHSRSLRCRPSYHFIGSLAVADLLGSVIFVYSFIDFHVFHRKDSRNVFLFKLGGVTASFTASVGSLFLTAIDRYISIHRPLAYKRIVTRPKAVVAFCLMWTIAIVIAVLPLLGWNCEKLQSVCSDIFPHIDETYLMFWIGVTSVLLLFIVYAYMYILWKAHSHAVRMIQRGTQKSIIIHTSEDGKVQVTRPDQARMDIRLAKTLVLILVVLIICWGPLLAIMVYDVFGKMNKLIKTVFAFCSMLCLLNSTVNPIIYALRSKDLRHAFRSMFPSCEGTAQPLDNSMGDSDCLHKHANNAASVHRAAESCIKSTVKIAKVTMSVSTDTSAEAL

[10] = biological target: Cannabinoid receptor 2 (Homo sapiens, UniProt P34972); experiment: Inverse agonist activity at human CB2 receptor expressed in HEK293 cells assessed as […] cAMP accumulation after 30 mins by HTRF assay; type: functional, cell-based
Chain of Cannabinoid receptor 2 (P34972 whole entry): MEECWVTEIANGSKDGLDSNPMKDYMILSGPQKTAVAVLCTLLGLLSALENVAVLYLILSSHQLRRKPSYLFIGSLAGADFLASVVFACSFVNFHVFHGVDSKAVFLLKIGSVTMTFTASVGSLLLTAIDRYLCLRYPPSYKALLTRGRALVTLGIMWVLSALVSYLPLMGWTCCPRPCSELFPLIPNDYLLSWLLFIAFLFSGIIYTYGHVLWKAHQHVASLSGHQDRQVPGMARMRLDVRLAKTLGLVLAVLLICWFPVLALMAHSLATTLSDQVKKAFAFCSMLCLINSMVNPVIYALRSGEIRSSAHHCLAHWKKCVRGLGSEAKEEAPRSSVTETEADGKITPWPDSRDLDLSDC

[11] = Ratio of drug level in C57BL/6J mouse brain to plasma at 20 mg/kg, po measured after 4 hrs; type: ADME, organism-based; settings: read-out: BPR
[12] = Drug uptake in C57BL/6J mouse brain at 20 mg/kg, po measured after 4 hrs; type: ADME, organism-based; settings: in vivo
[13] = Drug uptake in C57BL/6J mouse plasma at 20 mg/kg, po measured after 4 hrs; type: ADME, organism-based
[14] = Drug uptake in C57BL/6J mouse brain at 20 mg/kg, po measured after 1 hr; type: ADME, organism-based; settings: in vivo, BLD = below limit of detection
[15] = Drug uptake in C57BL/6J mouse plasma at 20 mg/kg, po measured after 1 hr; type: ADME, organism-based
[16] = system: Mus musculus; experiment: Antiobesity activity in diet induced obese C57BL/6J mouse model assessed as decrease in food intake at 10 mg/kg administered as daily dose measured every day for 5 days; type: functional, organism-based
[17] = Drug uptake in plasma of diet-induced obese C57BL/6J mouse model at 10 mg/kg administered as daily dose measured at 2 hrs post last dose on day 5; type: ADME, organism-based
[18] = system: Mus musculus; experiment: In vivo receptor occupancy at CB1 receptor in brain of diet induced obese C57BL/6J mouse model at 10 mg/kg, po administered as daily dose for 5 days measured 10 mins post last dose in presence of [3H]-CP-55940 relative to control; type: functional
[19] = Drug uptake in brain of diet-induced obese C57BL/6J mouse model at 10 mg/kg administered as daily dose measured at 2 hrs post last dose on day 5; type: ADME, organism-based; settings: in vivo
[20] = system: Mus musculus; experiment: Antiobesity activity in diet induced obese C57BL/6J mouse model assessed as decrease in body weight at 10 mg/kg administered as daily dose measured every day for 5 days; type: functional, organism-based
[21] = Ratio of drug level in brain to plasma of diet-induced obese C57BL/6J mouse model at 10 mg/kg administered as daily dose measured at 2 hrs post last dose on day 5; type: ADME, organism-based; settings: read-out: BPR

- remaining at 10 min, 1 µM [1]: 47.8%
- remaining at 10 min, 1 µM [2]: 62.2%
- IC50 [3]: > 10000 nM
- IC50 [4]: > 10000 nM
- IC50 [5]: > 10000 nM
- remaining at 10 min, 1 µM [6]: 60.1%
- IC50 [7]: 8000 nM
- IC50 [8]: > 10000 nM
SMILES: O=c1cc(NC2CCN(S(=O)(=O)C(F)(F)F)CC2)c2cc(C(c3ccc(Cl)cc3)c3nccs3)ccc2[nH]1 (stereo not given)

- EC50 [9]: 399 nM
SMILES: O=S(=O)(N1CCC(Nc2ccnc3c(O)cc(C(c4ccc(Cl)cc4)c4ccc(Cl)cc4)cc23)CC1)C(F)(F)F

- EC50 [10]: 61 nM
SMILES: O=C(O)CCCCCOc1cc(NC2CCN(S(=O)(=O)C(F)(F)F)CC2)c2cc(C(c3ccc(Cl)cc3)c3ccc(Cl)cc3)ccc2n1

- EC50 [9]: 8.4 nM
SMILES: COc1ccc(C(c2ccc(Cl)cc2)c2ccc3[nH]c(=O)cc(NC4CCN(S(=O)(=O)C(F)(F)F)CC4)c3c2)cc1 (stereo not given)

- EC50 [9]: 5 nM
SMILES: O=c1cc(NC2CCN(S(=O)(=O)C(F)(F)F)CC2)c2cc(C(c3ccc(Cl)cc3)n3ccnc3)ccc2[nH]1 (stereo not given)

- EC50 [10]: > 10000 nM
SMILES: CS(=O)(=O)N1CCC(Nc2cc(=O)[nH]c3ccc(C(c4ccc(Cl)cc4)c4ccc(Cl)cc4)cc23)CC1

- EC50 [10]: > 10000 nM
SMILES: O=C(O)COc1cc(C(c2ccc(Cl)cc2)c2ccc(Cl)cc2)cc2c(NC3CCN(S(=O)(=O)C(F)(F)F)CC3)ccnc12

- EC50 [10]: 8690 nM
SMILES: O=C(O)c1cccc(S(=O)(=O)N2CCC(Nc3cc(=O)[nH]c4ccc(C(c5ccc(Cl)cc5)c5ccc(Cl)cc5)cc34)CC2)c1

- EC50 [10]: 61 nM
SMILES: COCCCc1cc(C(c2ccc(Cl)cc2)c2ccc(Cl)cc2)cc2c(NC3CCN(S(=O)(=O)C(F)(F)F)CC3)cc(=O)[nH]c12

- IC50 [3]: > 10000 nM
- IC50 [4]: > 10000 nM
- IC50 [5]: > 10000 nM
- IC50 [7]: > 10000 nM
- IC50 [8]: > 10000 nM
SMILES: O=c1cc(/C=C/c2ccc(C(F)(F)F)cc2)c2cc(C(c3ccc(Cl)cc3)c3nccs3)ccc2[nH]1 (stereo not given)

- EC50 [9]: 22 nM
SMILES: COCCOc1cc(NC2CCN(S(=O)(=O)C(F)(F)F)CC2)c2cc(C(c3ccc(Cl)cc3)c3ccc(Cl)cc3)ccc2n1

- EC50 [9]: 260 nM
SMILES: O=c1cc(NC2CCN(S(=O)(=O)C(F)(F)F)CC2)c2cc(Cc3ccc(Cl)cc3)ccc2[nH]1

- remaining at 10 min, 1 µM [1]: 19.1%
- remaining at 10 min, 1 µM [2]: 20.4%
- remaining at 10 min, 1 µM [6]: 27.9%
SMILES: O=c1cc(N[C@@H]2CCN(S(=O)(=O)C(F)(F)F)C2)c2cc(C(c3ccc(Cl)cc3)c3nccs3)ccc2[nH]1 (stereo not given in full)

Second part, the compound before the results:

SMILES: O=C(Nc1cc(=O)[nH]c2ccc(C(c3ccc(Cl)cc3)n3ccnc3)cc12)c1ccccc1 (stereo not given)
- EC50 [9]: > 10000 nM

SMILES: O=c1cc(/C=C/c2ccccc2)c2cc(C(c3ccc(Cl)cc3)n3ccnc3)ccc2[nH]1 (stereo not given)
- EC50 [9]: 165 nM

SMILES: O=c1cc(CCc2ccccc2)c2cc(C(c3ccc(Cl)cc3)n3ccnc3)ccc2[nH]1 (stereo not given)
- EC50 [9]: > 10000 nM

SMILES: CCOC(=O)CC(=O)N1CCC(Nc2cc(=O)[nH]c3ccc(C(c4ccc(Cl)cc4)c4ccc(Cl)cc4)cc23)CC1
- EC50 [9]: 13.5 nM

SMILES: O=c1cc(NC2CCN(c3ncccn3)CC2)c2cc(C(c3ccc(Cl)cc3)c3ccc(Cl)cc3)ccc2[nH]1
- remaining at 10 min, 1 µM [1]: 57%
- Kp at 4 h [11]: 0.037
- Drug uptake [12]: 0.107 nmol/g
- remaining at 10 min, 1 µM [2]: 43%
- concentration at 4 h [13]: 2890 nM
- remaining at 10 min, 1 µM [6]: 69%
- Drug uptake [14]: Bld
- concentration at 1 h [15]: 4160 nM

SMILES: O=c1cc(Cc2ccc(OC(F)(F)F)cc2)c2cc(C(c3ccc(Cl)cc3)n3ccnc3)ccc2[nH]1 (stereo not given)
- EC50 [9]: 113 nM

SMILES: Cc1c(C(=O)NN2CCCCC2)nn(-c2ccc(Cl)cc2Cl)c1-c1ccc(Cl)cc1 [RIMONABANT]
- Activity [16]: Active
- concentration at 2 h [17]: 1500 nM
- Occ [18]: 81.7%
- Drug uptake [19]: 1.46 nmol/g
- Activity [20]: Active
- Kp at 2 h [21]: 0.98

SMILES: O=c1cc([C@@H]2C[C@@H]2c2ccccc2)c2cc(C(c3ccc(Cl)cc3)n3ccnc3)ccc2[nH]1 (stereo not given in full)
- EC50 [9]: 66 nM

SMILES: O=c1cc(/C=C/c2ccccc2)c2cc(C(O)c3ccc(Cl)cc3)ccc2[nH]1 (stereo not given)
- EC50 [9]: > 10000 nM

SMILES: O=c1cc(OCc2ccccc2)c2cc(C(c3ccc(Cl)cc3)n3ccnc3)ccc2[nH]1 (stereo not given)
- EC50 [9]: 1150 nM

SMILES: COCCOCCOCCOCCOCCOCCOCCOc1cc(NC2CCN(S(=O)(=O)C(F)(F)F)CC2)c2cc(C(c3ccc(Cl)cc3)c3ccc(Cl)cc3)ccc2n1
- EC50 [10]: 5900 nM
- EC50 [9]: 457 nM

From ChEMBL document CHEMBL4270663, “6-Benzhydryl-4-amino-quinolin-2-ones as Potent Cannabinoid Type 1 (CB1) Receptor Inverse Agonists and Chemical Modifications for Peripheral Selectivity” (J Med Chem, 2018)
